In patent EP4527828A1, “BIPHENYL COMPOUND, PHARMACEUTICAL COMPOSITION, METHOD FOR PREPARING SAME, AND USE THEREOF” (Longivitron (Suzhou) Biotechnology Co., Ltd, priority 2022, dated 2023):
pIC50: −log10 of the molar value. Like-named read-outs stand apart in the source and are kept apart here.

Key:
[1] = target: T1, LAG3/FGL1 (Homo sapiens, UniProt P18627); experiment: HTRF binding inhibition of LAG3 and its ligand FGL1; settings: Table 2; read-out: IC50 value for inhibiting LAG3/FGL1 interaction
T1 sequence (P18627 23-450 limits assumed): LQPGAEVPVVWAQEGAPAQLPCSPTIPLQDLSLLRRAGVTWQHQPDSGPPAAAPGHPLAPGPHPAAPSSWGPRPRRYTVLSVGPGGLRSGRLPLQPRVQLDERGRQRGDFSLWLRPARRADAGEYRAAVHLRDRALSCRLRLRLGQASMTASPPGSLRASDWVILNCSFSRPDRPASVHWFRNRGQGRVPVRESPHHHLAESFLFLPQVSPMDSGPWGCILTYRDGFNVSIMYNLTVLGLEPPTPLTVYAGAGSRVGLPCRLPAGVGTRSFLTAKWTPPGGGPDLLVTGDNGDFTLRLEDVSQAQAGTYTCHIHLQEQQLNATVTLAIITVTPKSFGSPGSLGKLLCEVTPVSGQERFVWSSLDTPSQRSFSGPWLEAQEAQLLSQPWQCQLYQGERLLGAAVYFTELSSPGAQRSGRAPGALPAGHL
Experimental: Reagent preparation: ① Tag1-LAG3 protein: a protein solution with a concentration of 50 nM (20 µL with a final system concentration of 10 nM) was prepared using a diluent. ② Tag2-FGL1 protein: a protein solution with a concentration of 100 nM (20 µL with a final system concentration of 20 nM) was prepared using a diluent. ③ Anti-Tag1-Tb: a 100× stock solution was diluted with a detection buffer to a 1 × stock solution. ④ Anti-Tag2-XL665: a 100× stock solution was diluted with a detection buffer to a 1 × stock solution.
Assay step: (1) 2 µL of compound solution (with a concentration to be measured of 10×) was added to a 384-well opaque plate having a white background, 4 µL of Tag1-LAG3 protein and 4 µL of Tag2-FGL1 protein were added, respectively, and the plate was incubated at room temperature for 15 min; (2) Anti-Tag1-Tb and Anti-Tag2-XL665 were mixed at a ratio of 1:1 in advance, and 10 µL of mix solution was added to each well; (3) the plate was gently mixed, sealed, and incubated at room temperature for 1 h or overnight before detection.

[2] = system: mouse melanoma B16F10; assay type: in vivo
Experimental: (§1) (1) 43 8-week-old female C57B/L mice were selected and divided into 5 cages. One preserved B16F10 tumor-bearing female C57L mouse was sacrificed by cervical dislocation. 75% alcohol was sprayed on the skin of the mouse in a laminar flow cabinet, and the tumor tissue of the tumor-bearing mouse was separated by sterilized surgical instruments and cut into a sterilized 5 mL homogenizer with ophthalmic scissors. The tumor tissue was slowly milled on ice to form a tumor fluid. The number of cells was 6.85 × 10^7 cells/mL as counted with a BioRad counting instrument. The tumor fluid was placed in an Erlenmeyer flask in an ice bath for later use. The tumor fluid was evenly aspirated using a 1 mL sterile syringe and inoculated 0.2 mL/C57/L mouse. After the inoculation was completed, the mice continued to be fed under the initial feeding conditions.
(§2) (4) The animals were sacrificed, and the tumors were separated and weighed. The animals in each group were treated immediately 1 h after administration on the last day and weighed, and the tumor tissue was weighed.
Animal grouping and administration: On the second day after tumor fluid inoculation of C57B/L mice, tumor-bearing mice were randomly grouped: a control group, a Compound 8-5 mg/kg group, a Compound 8-10 mg/kg group, a Compound 8-20 mg/kg group, and a positive control drug cyclophosphamide CTX-100 mg/kg group. The animals were weighed and administered daily. The drugs to be tested were administered orally daily, and the positive control drug CTX was administered intraperitoneally once. After the experiment was completed, the body weights and tumor weights of the animals were weighed, and the tumor weight inhibition rate (%) was calculated.

[3] = system: mouse melanoma B16F10; assay type: in vivo; settings: 15 days
Experimental: as §1
(2) Animal grouping and administration: On the second day after tumor fluid inoculation of C57B/L mice, 43 mice were randomly grouped: 10 mice in a control group, 8 mice in a Compound 4-20 mg/kg group, 8 mice in a Compound 4-30 mg/kg group, 8 mice in a Compound 4-40 mg/kg group, and 9 mice in a positive control drug cyclophosphamide CTX-100 mg/kg group. The mice were weighed and administered.
(3) Drug preparation: The corresponding amounts of the drugs were weighed according to the final concentrations of the experimental groups. The drugs of the Compound 4-20 mg/kg group and the Compound 4-30 mg/kg group were prepared with 0.25% CMCNa + Tween 80 and administered orally once a day. The drug of Compound 4-40 mg/kg was prepared with normal saline + Tween 80 and administered intraperitoneally. CTX was prepared with normal saline and administered intraperitoneally once. The mice in the control group were given 0.25% CMCNa solution orally.
as §2

[4] = B16F10, 40 mg/kg, table prints po, text says intraperitoneally

Compound | pIC50 [1] | Inhibition rate ([2]; B16F10, 5 mg/kg orally daily) [%] | Tumor weight ([2]; B16F10, 5 mg/kg orally daily) [g] | Inhibition rate ([2]; B16F10, 10 mg/kg orally daily) [%] | Tumor weight ([2]; B16F10, 10 mg/kg orally daily) [g] | Inhibition rate ([2]; B16F10, 20 mg/kg orally daily) [%] | Tumor weight ([2]; B16F10, 20 mg/kg orally daily) [g] | Inhibition rate ([3]; B16F10, 20 mg/kg po once a day) [%] | Tumor weight ([3]; B16F10, 20 mg/kg po once a day) [g] | Inhibition rate ([3]; B16F10, 30 mg/kg po once a day) [%] | Tumor weight ([3]; B16F10, 30 mg/kg po once a day) [g] | Inhibition rate [3, 4] [%] | Tumor weight [3, 4] [g]
CCCCCCOc1ccc(C(=O)O)cc1-c1cc(C(=O)NCCCCNC(=O)C(F)(F)F)ccc1OCCCCCC [Compound 8] | 5.00 | 16.94 | 1.50 ± 0.27 | 19.78 | 1.45 ± 0.70 | 53.64 | 0.80 ± 0.46 | – | – | – | – | – | –
CCCCCCOc1ccc2cc1-c1cc(ccc1OCCCCCC)C(=O)CCCCCC2=O [Compound 4] | – | – | – | – | – | – | – | 55.12 | 1.304 ± 0.623 | 28.00 | 2.091 ± 1.199 | 44.40 | 1.615 ± 0.495
